Results filed as inconclusive are left out. The source made the active and inactive calls. How the calls were made is not given here.
Molecular target: S. cerevisiae eIF2B mutant, luciferase reporter luminescence
Test: potency on yeast eIF2B luminescence signal – S. cerevisiae, mutant, wild-type, growth, dose response (AID 792)
[1] = measured here: mutant yeast growth
[2] = S. cerevisiae wild-type, luminescence

| SMILES | IC50 | IC50 [1] | IC50 [2] |
| --- | --- | --- | --- |
| Fc1ccc2nc(Nc3nc4c(s3)CCCC4)sc2c1 | > 100 µM (inactive) | > 100 µM |  |
| Cc1cccc2cc3c(NC(=O)c4ccccn4)nn(C)c3nc12 | > 100 µM (inactive) | 64.2 µM |  |
| Cc1ccc2nc(/C(C#N)=C\c3ccc(N4CCOCC4)o3)[nH]c2c1 | > 100 µM (inactive) | > 100 µM |  |
| O=C(O)c1cc2c(ccc3ccccc32)[nH]1 | > 100 µM (inactive) | > 100 µM |  |
| O=C(Nc1ccccc1N1CCN(C(=O)c2ccccc2)CC1)c1cc2ccccc2o1 | > 100 µM (inactive) | > 100 µM |  |
| CC(C)Oc1ccc(C(=O)O)c(C(=O)O)c1 | > 100 µM (inactive) | > 100 µM |  |
| O=C(CSc1nc(-c2ccco2)cc(C(F)(F)F)n1)Nc1ccccc1C(F)(F)F | > 100 µM (inactive) | > 100 µM |  |
| CS(=O)(=O)c1ccc2nc(NC(=O)C3C4C=CC(C4)C3C(=O)O)sc2c1 (stereo unspecified) | > 100 µM (inactive) | > 100 µM |  |
| Cc1cc(=O)[nH]c(N=N/C(=N/Nc2ccc(O)cc2)c2ccccc2)n1 | inactive | > 100 µM | 45.2 µM |
| COc1ccc(C2=CSC3=NCCN23)cc1F | > 100 µM (inactive) | > 100 µM |  |
| Cc1nn(C)c(C)c1CN(C)C(=O)c1cc2nc(-c3ccco3)cc(C(F)(F)F)n2n1 | > 100 µM (inactive) | > 100 µM |  |
| COc1ccc(N(C(=O)c2ccco2)S(=O)(=O)c2cccs2)cc1 | > 100 µM (inactive) | > 100 µM |  |
| Cc1c(C(=O)N2CCCC2)sc(NC(=O)c2ccc(Cl)cc2)c1C#N | > 100 µM (inactive) | > 100 µM |  |
| COc1ccccc1CNC(=O)CN1CCC(NC(=O)c2ccccc2F)CC1 | > 100 µM (inactive) | > 100 µM |  |
| C=CCN(C(=O)Cn1c(C(=O)OC)cc2oc(C)cc21)c1ccccc1 | > 100 µM (inactive) | > 100 µM |  |
| Cn1c(SCc2ccc(F)cc2)nnc1-c1cccs1 | > 100 µM (inactive) | > 100 µM |  |
| O=C(Nc1ccccn1)c1cc2ccccc2o1 | inactive | 56.3 µM | 4.46 µM |
| COc1ccc(Cl)cc1-n1c(N)c(C(N)=O)sc1=S | > 100 µM (inactive) | > 100 µM |  |
| COc1ccc2[nH]c(=O)c(CN(C(=O)c3cccnc3)c3ccc(C)cc3)cc2c1 | > 100 µM (inactive) | > 100 µM |  |
| CN1CCc2nc(SCCOc3ccccc3)c(C#N)cc2C1 | > 100 µM (inactive) | > 100 µM |  |
| CCOC(=O)CSc1nncc2ccc(OC)c(OC)c12 | > 100 µM (inactive) | > 100 µM |  |
| COc1ccccc1CNC(=O)CN(c1ccc(C)cc1)S(=O)(=O)c1c(C)nn(C)c1C | > 100 µM (inactive) | > 100 µM |  |

| SMILES | IC50 | IC50 [1] | IC50 [2] |
| --- | --- | --- | --- |
| CCCCCOC(=O)Cn1c(SCC(=O)Nc2ccccc2)nc2c1c(=O)[nH]c(=O)n2C | > 100 µM (inactive) | > 100 µM |  |
| CCOC(=O)CSc1ccc(-c2nc3cc(C)c(C)cc3[nH]2)cn1 | > 100 µM (inactive) | > 100 µM |  |
| CCOc1cc(-c2nc(-c3ccc(C)nc3OCC)no2)cc(OCC)c1OCC | > 100 µM (inactive) | > 100 µM |  |
| C=CCN1CC(c2nc3ccccc3n2Cc2cccc3ccccc23)CC1=O (stereo unspecified) | > 100 µM (inactive) | > 100 µM |  |
| COc1cc(S(=O)(=O)N(Cc2cccnc2)Cc2ccco2)ccc1-n1cnnn1 | > 100 µM (inactive) | > 100 µM | > 100 µM |
| COc1ccc2c(c1)CCc1c(C(=O)NCc3cccnc3)noc1-2 | > 100 µM (inactive) | > 100 µM |  |
| Cc1cc2ncc(C(=O)Nc3ccccc3)c(C)n2n1 | > 100 µM (inactive) | > 100 µM |  |
| CCOC(=O)Cc1csc(NC(NC(=O)CC)(C(F)(F)F)C(F)(F)F)n1 | > 100 µM (inactive) | > 100 µM |  |
| CCc1ccc2c(c1)C1(NN=C(c3ccc(C)cc3)S1)C(=O)N2 (stereo unspecified) | inactive | 99 µM | > 100 µM |
| CCC(=O)N1CCc2cc(S(=O)(=O)NC(C(=O)NCc3ccc(F)cc3)C(C)C)ccc21 (stereo unspecified) | > 100 µM (inactive) | > 100 µM |  |
| CCCCCn1c(NC(=O)c2ccco2)c(S(=O)(=O)c2ccc(C)cc2)c2nc3ccccc3nc21 | > 100 µM (inactive) | > 100 µM |  |
| CCOC(=O)Cn1c(=O)c(-c2ccccc2NCc2ccccc2)nc2ccccc21 | > 100 µM (inactive) | > 100 µM |  |
| O=C(c1c[nH]c2ccc(S(=O)(=O)N3CCOCC3)cc2c1=O)N1CCCC1 | > 100 µM (inactive) | > 100 µM |  |
| CCOc1ccc(S(=O)(=O)N2CCC(C(N)=O)CC2)c2ccccc12 | > 100 µM (inactive) | > 100 µM |  |
| COc1ccc(OC)c(N(CC(=O)Nc2ccc(NC(C)=O)cc2)S(C)(=O)=O)c1 | > 100 µM (inactive) | > 100 µM |  |
| CCOC(=O)Cn1c(=O)c2c(nc3n2CCN3Cc2ccccc2)n(C)c1=O | > 100 µM (inactive) | > 100 µM |  |
| O=c1c2ccccc2nc(CN2CCOCC2)n1-c1ccccc1F | > 100 µM (inactive) | > 100 µM |  |
| Cc1ccnc2nc(C(=O)Nc3ccc(N4CCOCC4)cc3)nn12 | inactive | > 100 µM | 11.1 µM |
| CC1(C)CC(=O)C=C(NCCCNC2CCCCC2)C1 | > 100 µM (inactive) | > 100 µM |  |
| Cc1cccc(N2C(=O)C3C4C=CC(C4)C3C2=O)c1 (stereo unspecified) | > 100 µM (inactive) | > 100 µM |  |
| CCOc1ccc2cc(/C=C/C(=O)c3ccco3)c(Cl)nc2c1 | > 100 µM (inactive) | > 100 µM |  |

Source: PubChem BioAssay AID792 (PCMD, 2007)
